Data as given in the METLIN SMRT retention time set (Domingo-Almenara et al. 2019).

Experiment: gradient 5% acetonitrile 3 min, to 50% in 2 min, to 85% in 15 min, held 3 min, 100 µL/min
Details: column: Zorbax Extend-C18 2.1 x 50 mm; eluents: water / acetonitrile, 0.1% formic acid
Method in brief: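 Each retention time is based on an adduct peak selected computationally and verified by manual inspection. Measurements used HPLC–quadrupole time-of-flight mass spectrometry in positive and negative ionization mode on mixtures of ~100 pure standards. Chromatography ran on a Zorbax Extend-C18 column (2.1 × 50 mm, 1.8 μm) at 100 μL/min with water and acetonitrile, each containing 0.1% formic acid, and dead and dwell volumes of 40 μL and 900 μL.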

RP-LC retention time | SMILES
681 s | CCc1nccn1Cc1nc(-c2ccc(C)c(C)c2)no1
943 s | Cc1sc(NC(=O)c2cccc(Br)c2)nc1-c1ccc2c(c1)N(C)C(=O)CO2
674 s | O=C(NCC(c1cccnc1)c1c[nH]c2ccccc12)Nc1ccc(F)cc1F (stereo unspecified)
710 s | Cc1noc(C)c1CC(=O)N1CCCn2cc(-c3ccccc3F)nc21
792 s | O=C(c1cc2ccccc2[nH]1)N1CCN(c2cc(-c3ccccc3)[nH]n2)CC1
592 s | Cn1ncc2c3ccccc3n(CC(=O)NCCCN3CCCC3)c2c1=O
653 s | COc1ccc(C2C(C(=O)N3CCOCC3)=C(C)NC3=C2C(=O)CCC3)cc1Br (stereo unspecified)
645 s | CCCCN(CCCNC(=O)C1CCN(S(=O)(=O)CC)CC1)c1ccccc1
1020 s | Cc1cc([N+](=O)[O-])ccc1NS(=O)(=O)c1cc(Cl)ccc1Cl
882 s | CN(C)c1ccc(C(=O)Nc2cnc(N3CCCCC3)nc2)cc1
816 s | Cn1cc(C2=CCN(C(=O)c3cccc(F)c3)CC2)c2cccnc21
668 s | CCC(C)NC(=O)CCc1cc2cc(OC)ccc2[nH]c1=O (stereo unspecified)
854 s | O=C(NCc1ccco1)N1CCCn2nc(-c3cccc(Cl)c3)cc2C1
626 s | CCOc1ccc(-c2noc(N3CCC(C(=O)N4CCN(C)CC4)CC3)n2)cc1OC
684 s | CN(C)c1cccc(C(=O)NC2CCN(c3cc(-c4ccc(F)cc4)[nH]n3)C2)c1 (stereo unspecified)
759 s | Cc1nnsc1C(=O)N1CCC(CNC(=O)NC(c2ccccc2)c2ccccc2)CC1
840 s | O=C(NCC(O)C1CCCCC1)c1cccc(C(F)(F)F)c1 (stereo unspecified)
958 s | COc1ccc(Cl)cc1C(=O)Nc1ccc2c(c1)CN(C(=O)c1cccs1)CC2
662 s | O=C(c1cccc(Br)c1)N1CCN(c2nnc3ccccn23)CC1
643 s | Cc1c(C(=O)N2CCOc3ccc(-c4ccc(N)nc4)cc3C2)ccc(S(C)(=O)=O)c1F
603 s | CCN(CC)C(=O)c1ccc2c(c1)N(CC(=O)NCCN1CCCCCC1)C(=O)CO2
675 s | c1cncc(CN2CCC(n3ncc4c(N5CCOCC5)nc(-c5ccc6[nH]ccc6c5)nc43)CC2)c1
813 s | CC(C)CCNC(=O)c1ccc2c(c1)NC(=O)C1CCCCN21 (stereo unspecified)

RP-LC retention time | SMILES
604 s | Cn1cc(CCN2CCN(S(=O)(=O)c3cccs3)CC2)c2cccnc21
1350 s | CC(C)c1ccc(S(=O)(=O)N2CCCC2c2nc(-c3cccc(Cl)c3)no2)cc1 (stereo unspecified)
757 s | O=C(NCC1COc2ccccc2O1)C(=O)N1CCCCC1 (stereo unspecified)
1290 s | CCOc1ccccc1NC(=O)Cn1nc(N2CCC(C)CC2)c2ccccc2c1=O
1030 s | Cc1ccc(C)c(Cn2ccn3nc(-c4ccccc4)c(CO)c3c2=O)c1
852 s | Cc1cc(-c2nnc(-c3ccco3)o2)c(C)n1CC(=O)NCc1cc(F)cc(F)c1
792 s | CC1(C(=O)NCc2ccc(F)cc2)CCCN(C(=O)Nc2ccc3c(c2)OCCO3)C1 (stereo unspecified)
554 s | O=C(NCCCn1ncccc1=O)c1coc(NC(=O)c2cnccn2)n1
634 s | Cc1nn(CC(=O)NCCCN(C)C2CCCCC2)c(=O)c2nn(-c3ccccc3)c(C)c12
539 s | CNc1nccc(N2CCC(CC(=O)N3CCCCCC3)CC2)n1
623 s | O=C(c1cccc(Cl)c1)N1CCN(c2nc(CN3CCOCC3)cs2)CC1
815 s | Cc1nc(Cn2cccc2C(=O)Nc2ccc(F)cc2)no1
797 s | COc1cccc(C(=O)CSc2ccc(NC(=O)C3CC3)nn2)c1
776 s | CC(C)NC(=O)C(=O)c1c(-c2ccccc2)[nH]c2ccccc12
945 s | CCOC(=O)c1cnc2nc(-c3ccccc3Cl)nn2c1C
796 s | CCNC(=O)c1ccc(-c2csc(C3CC3)n2)cc1
620 s | O=C(c1cccnc1)N1CCCCC1c1nncn1Cc1ccccc1 (stereo unspecified)
616 s | COc1ccccc1N1CCN(CCCNS(=O)(=O)c2ccc3c(c2)CCCC(=O)N3)CC1
752 s | CCc1noc(-c2cnc3nc(C)ccc3c2NCc2ccc(OC)cc2OC)n1
952 s | Cc1cccc(NC(=O)C23CCC=C2N(C2CCCC2)C(=O)CC3)c1 (stereo unspecified)
566 s | COC(=O)c1c(NCc2cccnc2)c2cccc(Cl)c2[nH]c1=O
678 s | Cc1noc(COC2CCCN(C(=O)CCc3c(C)noc3C)C2)n1 (stereo unspecified)
596 s | Cn1cc(C(=O)N2CCOCC2)cc(NC(=O)c2cccs2)c1=O

RP-LC retention time | SMILES
605 s | COc1ccc2[nH]cc(C(=O)O)c(=O)c2c1
676 s | COCCOc1nc(N)c2[nH]c(=O)n(Cc3ccccc3)c2n1
951 s | CCOc1ccc(-n2ccn3cc(-c4cc(C)ccc4C)nc3c2=O)cc1
933 s | Cc1ccc(Nc2c(-c3ccc4c(c3)OCO4)nc3cnccn23)c(C)c1
671 s | CCCNC(=O)c1nc2cc(C)c(C)cc2[nH]c1=O
789 s | O=S(=O)(NC1CCCCC1n1cc(-c2ccccc2)nn1)c1ccccc1 (stereo unspecified)
1020 s | CC(C)c1noc(-c2cc(=O)n(CC(=O)Nc3ccc(F)cc3F)c3ccccc23)n1
1310 s | CCCCOc1ccc(-c2nc(C3CC(=O)N(c4ccc(C)cc4)C3)no2)cc1 (stereo unspecified)
719 s | CCc1ccc(NS(=O)(=O)c2cc3[nH]c(=O)[nH]c3cc2C)cc1
708 s | O=C(Nc1ccccc1)C1CCc2sc(C(=O)N3CCOCC3)cc2C1 (stereo unspecified)
1290 s | CCOc1cc(-c2nc(C3CC(=O)N(c4ccc(F)c(Cl)c4)C3)no2)cc(OCC)c1OCC (stereo unspecified)
664 s | CCn1cnc2cc(-c3noc(C4CC(=O)N(c5ccccc5)C4)n3)ccc21 (stereo unspecified)
816 s | Cc1cccc(CNC(=O)C2CCN(S(=O)(=O)c3ccc(-c4cc(C)[nH]n4)o3)CC2)c1
667 s | CCC(=O)Nc1ccc(-n2cnc(C(=O)N3CCN(c4ccccc4OC)CC3)c2)nc1
799 s | CCc1ccccc1NC(=O)N1CCC(n2cnc3ccc(C)cc3c2=O)CC1
661 s | CCCNC(=O)CC1CCN(C(=O)c2[nH]c(C)cc2C)CC1
763 s | Cc1cccc(-c2ncccc2CNS(=O)(=O)c2cccc(Cl)c2)c1
1080 s | Cc1nc(C2(C)CCN(S(=O)(=O)c3ccc(C(C)(C)C)cc3)CC2)no1
555 s | O=C(O)CCC(=O)Nc1cccc(C(=O)O)c1
858 s | C/C(O)=C(\C#N)C(=O)Nc1ccc(C(F)(F)F)cc1
1330 s | Cc1ccc(-c2csc(Nc3ccc(Br)cn3)n2)c(C)c1
672 s | Cc1cccc(-c2nc3cnccn3c2NCCC(=O)NCC(C)C)c1
578 s | CCN1CCN(CCCNC(=O)CC2CCN(C(=O)c3[nH]c(C)c(C)c3C)CC2)CC1

RP-LC retention time | SMILES
701 s | COc1ccc(S(=O)(=O)N2CCN(c3cc(C)c4ccccc4n3)CC2)cc1
930 s | COc1ccccc1CC(=O)N1CCCn2nc(-c3ccc(C)cc3)cc2C1
883 s | O=C(NC1CCCCC1)c1nc(Nc2ccc(F)cc2)c2ccccc2n1
983 s | COc1ccc(-n2c(=O)c(C(=O)Nc3ccc(F)c(F)c3)c(O)c3cccnc32)cc1
793 s | CCOC(=O)CNC(=O)NCc1cccn1Cc1ccccc1
634 s | CC(C)CC(=O)N1CCN(c2nc(CN3CCC(C)CC3)cs2)CC1
786 s | Cc1cc(-c2nnc3sc(COc4ccc(Br)cc4)nn23)n[nH]1
764 s | COc1cccc(N2CCN(C(=O)C3CCN(S(=O)(=O)c4cn(C(C)C)cn4)CC3)CC2)c1
1140 s | CC(C)(C)OC(=O)Cn1cnc2c(-c3ccc(Br)cc3)csc2c1=O
1060 s | CCc1sc(NC(=O)C2CC(=O)N(CCc3c[nH]c4ccc(Cl)cc34)C2)nc1-c1ccccc1 (stereo unspecified)
1120 s | Cc1cccc2c(=O)n(C3CCN(S(=O)(=O)c4ccc(C(C)C)cc4)CC3)cnc12
970 s | COc1ccc(-c2csc(C)n2)cc1S(=O)(=O)N1CCc2ccccc2C1
612 s | CCOc1ccccc1N1CCN(Cc2cc(C)[nH]n2)CC1
963 s | CCOc1ccc(S(=O)(=O)NCc2c(-c3ccccc3)nc3sc(CC)nn23)cc1
872 s | CCC(=O)N(C1CCOCC1)C1CCN(S(=O)(=O)c2cccc(Cl)c2)CC1
715 s | COCc1nn(CC2CC2)c2c1CN(C(=O)c1ccc(OC)cc1)CC2
764 s | O=C(Nc1nnc(-c2cccs2)o1)c1cc(Cl)ccc1Cl
904 s | COC(=O)C1=CN(C2CC2)c2cc(N3CCN(c4ccccc4OC)CC3)c(F)cc2S1(=O)=O
865 s | CN(C1CCc2nn(C)c(=O)n2CC1)S(=O)(=O)c1ccccc1Cl (stereo unspecified)
848 s | Cc1cccc(C)c1NS(=O)(=O)c1cc2c3c(c1)CCC(=O)N3CCC2
653 s | CC(C)Cn1c(=O)c(N2CCN(C(=O)Cc3ccsc3)CC2)nc2ccncc21
1270 s | O=C(Nc1cc(F)ccc1F)c1c(O)c2cccnc2n(-c2ccc(F)cc2)c1=O
